Test results taken from patent US11185076B2 (priority 2017, dated 2021).
Read-outs that look alike come from different tables or passages of the source.

Key:
[1] = tested on: cucumber mosaic virus (CMV)
[2] = tested on: tomato yellow leaf curl disease (TYLCV); assay: Control test on tomato yellow leaf curl disease (TYLCV) (soil drench test); type: in vivo, tomato yellow leaf curl virus; details: for phytotoxicity: tomato (cultivar: Sekai-ichi)
Protocol: Granules containing 3% of tolprocarb (a) (trade name; Sanblas (registered trademark) granules (manufactured by Mitsui Chemical Agro Co., Ltd.)), granules containing 5% of pyroquilon (b) (trade name; Coratop (registered trademark) granules (manufactured by Syngenta Japan Ltd.)) and granules containing 1% of dinotefran (trade name; Starkle (registered trademark) granules (manufactured by Mitsui Chemicals Agro Co., Ltd.)) were respectively treated or were treated in combination to plant foot of tomato in a predetermined amount. Seven days after chemical agent treatment, the plants were inoculated by sucking of one adult of TYLCV-carrying tobacco whitefly biotype Q per plant for 3 days. Thereafter, the inoculated plants were put in the greenhouse to promote infection, and the control effect was examined after the infection. The infection was examined by the degree of infection, and the disease severity index was calculated based on the degree of infection. The control value was calculated from the disease severity index.
1: observation of initial infection (delayed infection)
2: observation of infection Severity index=((the number of plants of infection index 0×0)+(the number of plants of infection index 1×1)+(the number of plants of infection index 2×2)/(the number of plants examined×2))×100
(§1) The synergistic effect was calculated from the following Colby's equation. Synergistic effect (expected value)=(control value of compound A+control value of compound B)−(control value of compound A×control value of compound B)/100
(§2) When the control value exceeded the expected value in the case of mixing the compounds and applying the mixed product, it was determined that there was a synergistic effect.

Rice Streak Virus (RSV) = assay: Control test on rice streak virus (RSV) (field trial of nursery box application); type: in vivo, rice stripe virus
Protocol: Rice seedlings (cultivar: Hinohikari) were grown in a greenhouse according to an ordinary procedure and transplanted to an open paddy field. Granules containing 4% of tolprocarb (a) and granules containing 6% of dinotefuran (insecticidal ingredient) formulated according to Formulation Example 2 were respectively treated or were treated in combination in 50 g per box in a nursery box on the day of transplantation. 35 days after transplantation, larvae of RSV-carrying small brown planthopper were released for one week to inoculate rice plants by sucking. At 79 days and 99 days after transplantation, the presence or absence of the unshooting of head was examined.

[3] = tested on: cucumber mosaic virus (CMV); details: for Number of CMV Infected Plants: Acute wilt / Number of CMV Infected Plants: Mosaic / Number of CMV Infected Plants: No Infection: 5 plants; for Number of CMV Infected Plants: Acute wilt / Number of CMV Infected Plants: Mosaic / Number of CMV Infected Plants: No Infection / Control value / Disease Severity index: drench 3 days before inoculation, g ai/10a: (a) 90, (b) 150, dinotefuran 120, thiamethoxam 60, (h) 250, mixtures 90 + 120 and 150 + 60; for phytotoxicity: cucumber (cultivar: Sagami-hanjiro)
[4] = tested on: Chinese cabbage soft rot bacteria (Erwinia carotovora subsp. carotovora); assay: Control test on Chinese cabbage soft rot (soil incorporation test); type: in vivo; details: for phytotoxicity: Chinese cabbage plant (cultivar: Muso)
From the text: Granules containing 3% of tolprocarb (a) (trade name; Sanblas (registered trademark) granules (manufactured by Mitsui Chemical Agro Co., Ltd.)), granules containing 5% of pyroquilon (b) (trade name; Coratop (registered trademark) granules (manufactured by Mitsui Chemical Agro Co., Ltd.)), granules containing 1.5% of simeconazole (fungicidal component) (trade name; Mongalite (registered trademark) granules (manufactured by Mitsui Chemical Agro Co., Ltd.)) and flowable containing 20% of penthiopyrad (fungicidal component) were respectively incorporated or were incorporated in combination into a pot soil in a predetermined amount. Then, the Chinese cabbage was planted in the pot soil. At 14 days after chemical agent treatment, the Chinese cabbage soft rot was inoculated. […] Thereafter, the inoculated plantes were put in a 25° C. greenhouse to promote infection for 2 days, and the control effect was examined. The infection was examined by the degree of infection, and the disease severity index was calculated based on the degree of infection. The control value was calculated from the disease severity index.
Severity index=((the number of leaves of infection index 0×0)+(the number of leaves of infection index 1×1)+(the number of leaves of infection index 2×2)+(the number of leaves of infection index 3×3)/(the number of leaves examined×3)×100
as §1, §2

[5] = tested on: tomato powdery mildew (Oidium neolycopersici); assay: Control test on tomato powdery mildew (soil incorporation test); type: in vivo
Protocol: A tomato powdery mildew control test was performed in a greenhouse. A plastic pots having a diameter of 20 cm were used for the test. As test chemical agents, granules containing 3% of tolprocarb (compound (a)) (trade name; Sanblas (registered trademark) granules (Mitsui Chemical Agro Inc.)) commercially available and granules containing 5% of pyroquilon (compound (b)) (trade name: Coratop (registered trademark) granules (manufactured by Syngenta Japan Co., Ltd.)) were mixed to soil on the entire surface of the pot in an amount equivalent to 3 kg/10a. Also, the simplified emulsifiable concentrate E(c) containing the compound (c) was suspended in the distilled water, and was irrigated onto the entire surface of the pot to be incorporated. As the comparative example, granules (trade name: Oryzemate (registered trademark) granules (Meiji Seika Pharma Co., Ltd.)) containing 8% of probenazole (comparative compound (h)) was mixed to soil on the entire surface of the pot in an amount equivalent to 3 kg/10a. Tomato (cultivar: Ohgata-fukuju) grown up to 4-leaf stage of true leaf was planted in a plastic pots having a diameter of 20 cm and were treated with chemical agents. Plants were grown in a glass greenhouse and naturally occurring tomato powdery mildew (Oidium neolycopersici) was examined one month after chemical agent treatment. In the examination, an infection index of six leaves per pot was examined to calculate disease severity index. The control value was calculated from the disease severity index.
The criteria for the degree of infection are as follows.
1: lesion area rate of less than 5%
2: lesion area rate from 5% to 25%
3: lesion area rate from 25% to 50%
The severity index was calculated from the following equation. Severity index=((the number of compound leaves of infection index 0×0)+(the number of compound leaves of infection index 1×1)+(the number of compound leaves of infection index 2×2)+(the number of compound leaves of infection index 3×3)+(the number of compound leaves of infection index 4×4/(the number of compound leaves examined×4))×100

[6] = 250 g ai/10a, drench 1 day before inoculation
[7] = 250 g ai/10a, drench 1 day before inoculation, 3 checked
[8] = Total of plots, g ai/10a: (a) 90, (b) 150, (c) 90, (h) 240
[9] = Total, one month after treatment, g ai/10a: (a) 90, (b) 150, (c) 90, (h) 240
[10] = plot I, g ai/10a: (a) 90, (b) 150, (c) 90, (h) 240
[11] = plot II, g ai/10a: (a) 90, (b) 150, (c) 90, (h) 240
[12] = plot III, g ai/10a: (a) 90, (b) 150, (c) 90, (h) 240

CSC(=O)c1cccc2nnsc12 [Acibenzolar-S-methyl (i), acibenzolar S methyl, reference compound]
Control value [1, 6]: 50.0 | Disease Severity index [1, 6]: 50.0 | Number of CMV Infected Leaves: Acute wilt [1, 7]: 0 | Number of CMV Infected Leaves: Mosaic [1, 7]: 3 | Number of CMV Infected Leaves: No Infection [1, 7]: 0 | phytotoxicity ([1]; cucumber (cultivar: Sagami-hanjiro)): not observed

CN/C(=N/CC1CCOC1)N[N+](=O)[O-] (stereo not shown) [Dinotefuran, dinotefuran]
phytotoxicity [2]: not observed | control effect on the rice stripe blight (RSV) (in words) (Rice Streak Virus (RSV); nursery box application): effect of delaying the occurrence of the unshooting of head | phytotoxicity (Rice Streak Virus (RSV); rice (cultivar: Hinohikari)): not observed | Number of CMV Infected Plants: Acute wilt [3]: 2 | Number of CMV Infected Plants: Mosaic [3]: 2 | Number of CMV Infected Plants: No Infection [3]: 1 | phytotoxicity [3]: not observed | Control value [3]: 33.3 | Disease Severity index [3]: 60.0

C=CCOC1=NS(=O)(=O)c2ccccc21 [Probenazole (h), probenazole]
Number of CMV Infected Plants: Acute wilt [3]: 0 | Number of CMV Infected Plants: Mosaic [3]: 2 | Number of CMV Infected Plants: No Infection [3]: 3 | phytotoxicity [3]: not observed | Control value [3]: 77.8 | Disease Severity index [3]: 20.0

O=C1CCc2cccc3c2N1CC3 [Pyroquilon (b), pyroquilon]
phytotoxicity [2]: not observed | control effect on tomato yellow leaf curl disease (TYLCV) (in words) ([2]; treatment on 7 day before inoculation): excellent control effect | phytotoxicity [4]: not observed | control effect on the Chinese cabbage soft rot (in words) ([4]; whole soil incorporation at the time of planting): excellent control effect | Number of CMV Infected Plants: Acute wilt [3]: 0 | Number of CMV Infected Plants: Mosaic [3]: 4 | Number of CMV Infected Plants: No Infection [3]: 1 | phytotoxicity [3]: not observed | Control value [3]: 55.6 | Disease Severity index [3]: 40.0 | control effect on cucumber mosaic virus (CMV) (in words) ([3]; treatment on 3 day before inoculation): excellent control effect

CN1COCN(Cc2cnc(Cl)s2)/C1=N\[N+](=O)[O-] [Thiamethoxam, thiamethoxam]
Number of CMV Infected Plants: Acute wilt [3]: 1 | Number of CMV Infected Plants: Mosaic [3]: 3 | Number of CMV Infected Plants: No Infection [3]: 1 | phytotoxicity [3]: not observed | Control value [3]: 44.4 | Disease Severity index [3]: 50.0

Cc1cccc2sc3nncn3c12 [Tricyclazole (c), tricyclazole]
Infection index 0 (number of leaves) [5, 8]: 8 | Infection index 1 (number of leaves) [5, 8]: 8 | Infection index 2 (number of leaves) [5, 8]: 2 | Infection index 3 (number of leaves) [5, 8]: 0 | Infection index 4 (number of leaves) [5, 8]: 0 | Control value [5, 9]: 66.7 | Disease Severity index [5, 9]: 16.7 | Infection index 0 (number of leaves) [5, 10]: 0 | Infection index 1 (number of leaves) [5, 10]: 5 | Infection index 2 (number of leaves) [5, 10]: 1 | Infection index 3 (number of leaves) [5, 10]: 0 | Infection index 4 (number of leaves) [5, 10]: 0 | Infection index 0 (number of leaves) [5, 11]: 5 | Infection index 1 (number of leaves) [5, 11]: 1 | Infection index 2 (number of leaves) [5, 11]: 0 | Infection index 3 (number of leaves) [5, 11]: 0 | Infection index 4 (number of leaves) [5, 11]: 0 | Infection index 0 (number of leaves) [5, 12]: 3 | Infection index 1 (number of leaves) [5, 12]: 2 | Infection index 2 (number of leaves) [5, 12]: 1 | Infection index 3 (number of leaves) [5, 12]: 0 | Infection index 4 (number of leaves) [5, 12]: 0 | phytotoxicity ([5]; tomato (cultivar: Ohgata-fukuju), g ai/10a: (a) 90, (b) 150, (c) 90, (h) 240): not observed | control effect on tomato powdery mildew (in words) ([5]; whole soil incorporation): excellent control effect

CC(C)CC(C)c1sccc1NC(=O)c1cn(C)nc1C(F)(F)F (stereo not shown) [penthiopyrad, reference compound]
phytotoxicity [4]: not observed

C[Si](C)(C)CC(O)(Cn1cncn1)c1ccc(F)cc1 (stereo not shown) [simeconazole, reference compound]
phytotoxicity [4]: not observed
